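Dose response: 5 concentrations. Exposure: 48 h. Format: 96-well plates. Endpoint: linear interpolation; highest concentration if not reached. At the GI50, growth is halved. Definition used: TGI = concentration required for complete inhibition of growth.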
Columns and labels:
Experiment in all cases: growth of human tumour cells (NCI), 48 h
[1] = system: HCT-15 colon
[2] = system: OVCAR-8 ovarian
[3] = system: COLO 205 colon
[4] = system: NCI-H522 lung
[5] = system: HT29 colon
[6] = system: SF-539 CNS
[7] = system: LOX IMVI melanoma
[8] = system: IGROV1 ovarian
[9] = system: UACC-257 melanoma
[10] = system: HCC-2998 colon
[11] = system: SW-620 colon
[12] = system: ACHN renal
[13] = system: SK-MEL-5 melanoma
[14] = system: RPMI-8226 leukemia
[15] = system: OVCAR-5 ovarian
[16] = system: SK-MEL-2 melanoma
[17] = system: SK-MEL-28 melanoma
[18] = system: NCI-H226 lung
[19] = system: MCF7 breast
[20] = system: SN12C renal
[21] = system: BT-549 breast
[22] = system: MALME-3M melanoma
[23] = system: 786-0 renal
[24] = system: M14 melanoma
[25] = system: OVCAR-3 ovarian
[26] = system: HCT-116 colon
[27] = system: HL-60(TB) leukemia
[28] = system: EKVX NSCLC

Compound `COc1ccc(/C(C)=C(\c2ccc(Cl)cc2)c2ccc(OCCN3CCCCC3)cc2)cc1` has a GI50 [1] of 1.16 µM, a TGI [1] of 4.56 µM and a GI50 [2] of 5.64 µM. The TGI [2] was 11.8 µM, the GI50 [3] was 2.25 µM and the TGI [3] was 7.05 µM. It also gave a GI50 [4] of 4.12 µM, a TGI [4] of 8.66 µM and a GI50 [5] of 0.984 µM. The TGI [5] was 3.87 µM, the GI50 [6] was 3.54 µM and the TGI [6] was 7.68 µM. For the same compound, the GI50 [7] was 1.89 µM, the TGI [7] was 6.2 µM and the GI50 [8] was 4.93 µM. It also gave a TGI [8] of 11.2 µM, a GI50 [9] of 5.73 µM and a TGI [9] of 10.8 µM. For the same compound, the GI50 [10] was 3.84 µM, the TGI [10] was 8.1 µM and the GI50 [11] was 3.34 µM. It also gave a TGI [11] of 8.09 µM, a GI50 [12] of 5.13 µM and a TGI [12] of 9.61 µM. For the same compound, the GI50 [13] was 1.57 µM, the TGI [13] was 5.44 µM and the GI50 [14] was 1.44 µM. For the same compound, the TGI [14] was 6.64 µM, the GI50 [15] was 4.16 µM and the TGI [15] was 9.55 µM. It also gave a GI50 [16] of 5.85 µM, a TGI [16] of 10.7 µM and a GI50 [17] of 3.99 µM. The TGI [17] was 8.4 µM, the GI50 [18] was 4.85 µM and the TGI [18] was 9.7 µM. The GI50 [19] was 0.604 µM, the TGI [19] was 5.71 µM and the GI50 [20] was 4.68 µM. For the same compound, the TGI [20] was 9.53 µM, the GI50 [21] was 3.19 µM and the TGI [21] was 7.55 µM. It also gave a GI50 [22] of 4.01 µM, a TGI [22] of 8.49 µM and a GI50 [23] of 0.746 µM. The TGI [23] was 1.9 µM, the GI50 [24] was 0.861 µM and the TGI [24] was 2.36 µM. The GI50 [25] was 5.26 µM, the TGI [25] was 11 µM and the GI50 [26] was 1.46 µM. For the same compound, the TGI [26] was 5.24 µM, the GI50 [27] was 3.94 µM and the TGI [27] was 12.6 µM. The GI50 [28] was 2.66 µM and the TGI [28] was 8.79 µM.
